In assay [1] the test system is Escherichia coli. The assay can be described thus: Antibacterial activity against Escherichia coli DH5alpha producing beta-lactamase TEM-1 by microdilution method. The class given is functional.
Assay [2] has as its system Escherichia coli. The assay can be described thus: Antibacterial activity against Escherichia coli DH5alpha by microdilution method. The assay is classed as functional. On the technique in general: Dilution methods test growth across graded concentrations, often in twofold steps.
In assay [3] the test system is Escherichia coli. Description: Antibacterial activity against Escherichia coli DH5alpha producing beta-lactamase TEM-12 by microdilution method. The assay is classed as functional.
Assay [4] concerns Escherichia coli. The assay can be described thus: Antibacterial activity against Escherichia coli DH5alpha producing beta-lactamase TEM-158 by microdilution method. The class given is functional.
Assay [5] has as its system Escherichia coli. Description: Antibacterial activity against Escherichia coli BER1 producing beta-lactamase pI 5.2 and pI 5.4 by microdilution method. The class given is functional.
Assay [6] deals with Escherichia coli. The assay can be described thus: Antibacterial activity against rifampin-resistant Escherichia coli C600 transconjugant producing beta-lactamase of pI 5.2 by microdilution method. The assay is classed as functional.
For assay [7], the system named is Escherichia coli. Description: Antibacterial activity against rifampin-resistant Escherichia coli C600 by microdilution method. The assay is classed as functional.
For assay [8], the system named is Escherichia coli. The assay can be described thus: Antibacterial activity against Escherichia coli DH5alpha producing beta-lactamase TEM-35 by microdilution method. The assay is classed as functional.
Assay [9] in a line: Inhibition of Escherichia coli DH5alpha beta-lactamase TEM-12.
Assay [10] in a line: Inhibition of Escherichia coli CF0042 beta-lactamase TEM-35.
The nature of assay [11]: Inhibition of Escherichia coli DH10B beta-lactamase TEM-121 after 10 mins. Details: species or system Escherichia coli str. K-12 substr. DH10B.
Assay [12] can be described thus: Inhibition of Escherichia coli DH5alpha CL1179 clone beta-lactamase TEM-152 after 10 mins.
Assay [13] can be described thus: Inhibition of Escherichia coli TO799 beta-lactamase TEM-125 after 10 mins.

As usually defined, the MIC is the least concentration at which growth counts as inhibited. The low end stands for a more susceptible organism, the high end for a less susceptible organism. As a reminder, the IC50 is the midpoint of a concentration-inhibition curve. A higher IC50 goes with weaker potency in that assay.

Structures are written as SMILES. ≈ marks a conversion by molar mass, not a printed value.

On to `CC(=O)OCC1=C(C(=O)O)N2C(=O)[C@@H](NC(=O)Cc3cccs3)[C@H]2SC1` [CEPHALOTHIN], for which the MIC came out at 4 µg/mL (≈ 10.1 µM) in assay [1]; 4 µg/mL (≈ 10.1 µM) in assay [2]; 8 µg/mL (≈ 20.2 µM) in assay [3]; 32 µg/mL (≈ 80.7 µM) in assay [4]; 32 µg/mL (≈ 80.7 µM) in assay [5]; 16 µg/mL (≈ 40.4 µM) in [6]. For the same compound, the MIC was 4 µg/mL (≈ 10.1 µM) in assay [7] and 16 µg/mL (≈ 40.4 µM) in assay [8].
As to `C[C@]1(Cn2ccnn2)[C@H](C(=O)O)N2C(=O)C[C@H]2S1(=O)=O` [TAZOBACTAM], the concentration for half-maximal inhibition (IC50) in assay [9] was determined as 130 nM; in [10], 1800 nM.
Turning to `CCN1CCN(C(=O)N[C@@H](C(=O)N[C@@H]2C(=O)N3[C@@H]2SC(C)(C)[C@@H]3C(=O)O)c2ccccc2)C(=O)C1=O` [PIPERACILLIN], the MIC in [1] is 512 µg/mL (≈ 989 µM); in assay [2], 2 µg/mL (≈ 3.86 µM); in [3], > 2050 µg/mL; in assay [4], 2050 µg/mL (≈ 3960 µM); in assay [5], 2050 µg/mL (≈ 3960 µM); in assay [6] it was 2050 µg/mL (≈ 3960 µM). Also, the figures for the MIC in assay [7] and in assay [8] were 2 µg/mL (≈ 3.86 µM) and > 2050 µg/mL, respectively.
In [3], `C[C@@H](O)[C@H]1C(=O)N2C(C(=O)O)=C(SCCNC=N)C[C@H]12` [IMIPENEM ANHYDROUS] returned an MIC of 0.25 µg/mL (≈ 0.835 µM).
Consider `O=C(O)[C@H]1/C(=C/CO)O[C@@H]2CC(=O)N21` [CLAVULANIC ACID], for which the IC50 in [11] turned out to be 1000 nM; in [9] it was 20 nM; in assay [10], 27000 nM; in assay [12], 1000 nM; in assay [13] it was 13600 nM.
`C[C@H]1[C@H](NC(=O)/C(=N\OC(C)(C)C(=O)O)c2csc(N)n2)C(=O)N1S(=O)(=O)O` [AZTREONAM]: the minimum inhibitory concentration (MIC) in assay [3] amounted to 4 µg/mL (≈ 9.19 µM); in [4] it was 1 µg/mL (≈ 2.3 µM); in assay [5], 1 µg/mL (≈ 2.3 µM); in [6] it was 1 µg/mL (≈ 2.3 µM).
Consider `CC1(C)S[C@@H]2[C@H](NC(=O)[C@H](C(=O)O)c3ccsc3)C(=O)N2[C@H]1C(=O)O` [TICARCILLIN], for which the MIC in [1] is > 2050 µg/mL; in assay [2], 2 µg/mL (≈ 5.2 µM); in assay [3], > 2050 µg/mL; in assay [4] it was > 2050 µg/mL; in assay [5], > 2050 µg/mL; in assay [6] it was > 2050 µg/mL. Moreover, the results for the minimal inhibitory concentration (MIC) in assay [7] and in assay [8] were 2 µg/mL (≈ 5.2 µM) and > 2050 µg/mL, respectively.
As for `CC(C)(O/N=C(\C(=O)N[C@@H]1C(=O)N2C(C(=O)[O-])=C(C[n+]3ccccc3)CS[C@H]12)c1csc(N)n1)C(=O)O` [CEFTAZIDIME], the MIC came to 0.12 µg/mL (≈ 0.22 µM) in assay [1]; 0.12 µg/mL (≈ 0.22 µM) in assay [2]; 32 µg/mL (≈ 58.5 µM) in [3]; 32 µg/mL (≈ 58.5 µM) in assay [4]; 16 µg/mL (≈ 29.3 µM) in assay [5]; 16 µg/mL (≈ 29.3 µM) in assay [6]. Besides, the minimum inhibitory concentration (MIC) in assay [7] stood at 0.12 µg/mL (≈ 0.22 µM); in assay [8], 0.25 µg/mL (≈ 0.457 µM).
Turning to `CO/N=C(\C(=O)N[C@@H]1C(=O)N2C(C(=O)[O-])=C(C[N+]3(C)CCCC3)CS[C@H]12)c1csc(N)n1`, the minimal inhibitory concentration (MIC) was < 0.06 µg/mL in assay [1]; < 0.06 µg/mL in [2]; 1 µg/mL (≈ 2.08 µM) in assay [3]; 4 µg/mL (≈ 8.32 µM) in [4]; 4 µg/mL (≈ 8.32 µM) in assay [5]; 4 µg/mL (≈ 8.32 µM) in assay [6]. For the same compound, the MIC in assay [7] and in [8] was < 0.06 µg/mL in each case.
With `CO[C@@]1(NC(=O)Cc2cccs2)C(=O)N2C(C(=O)O)=C(COC(N)=O)CS[C@@H]21` [CEFOXITIN], the MIC in [1] was 4 µg/mL (≈ 9.36 µM); in [2], 4 µg/mL (≈ 9.36 µM); in assay [3], 4 µg/mL (≈ 9.36 µM); in assay [4], 4 µg/mL (≈ 9.36 µM); in assay [5], 0.25 µg/mL (≈ 0.585 µM); in assay [6], 4 µg/mL (≈ 9.36 µM). In addition, the MIC in assay [7] and in assay [8] was 4 µg/mL (≈ 9.36 µM) in each case.
In the case of `CC1(C)S[C@@H]2[C@H](NC(=O)[C@H](N)c3ccc(O)cc3)C(=O)N2[C@H]1C(=O)O` [AMOXICILLIN], the MIC in assay [1] is > 2050 µg/mL; in assay [2] it was 4 µg/mL (≈ 10.9 µM); in assay [3] it was > 2050 µg/mL; in assay [4] it was > 2050 µg/mL; in assay [5], > 2050 µg/mL; in assay [6], > 2050 µg/mL. The MIC is 4 µg/mL (≈ 10.9 µM) in assay [7] and > 2050 µg/mL in assay [8].
As to `CO/N=C(\C(=O)N[C@@H]1C(=O)N2C(C(=O)O)=C(COC(N)=O)CS[C@H]12)c1ccco1` [CEFUROXIME], the MIC in assay [1] was determined as 4 µg/mL (≈ 9.43 µM); in assay [2], 4 µg/mL (≈ 9.43 µM); in assay [3] it was 8 µg/mL (≈ 18.9 µM); in assay [4], 8 µg/mL (≈ 18.9 µM); in assay [5], 8 µg/mL (≈ 18.9 µM); in assay [6] it was 4 µg/mL (≈ 9.43 µM). Besides, the figures for the MIC in assay [7] and in assay [8] were 4 µg/mL (≈ 9.43 µM) and 8 µg/mL (≈ 18.9 µM), respectively.
Turning to `CO/N=C(\C(=O)N[C@@H]1C(=O)N2C(C(=O)O)=C(COC(C)=O)CS[C@H]12)c1csc(N)n1` [CEFOTAXIME], the minimum inhibitory concentration (MIC) is 0.06 µg/mL (≈ 0.132 µM) in assay [1]; 0.06 µg/mL (≈ 0.132 µM) in [2]; 0.12 µg/mL (≈ 0.263 µM) in assay [3]; 0.25 µg/mL (≈ 0.549 µM) in assay [4]; 0.25 µg/mL (≈ 0.549 µM) in assay [5]; 0.25 µg/mL (≈ 0.549 µM) in assay [6]. The MIC in [7] and in assay [8] was 0.06 µg/mL (≈ 0.132 µM) each time.

For the origin of these results see ChEMBL document CHEMBL1137638, “TEM-158 (CMT-9), a new member of the CMT-type extended-spectrum beta-lactamases” (Antimicrob Agents Chemother, 2007).
